Results published in the NIST ThermoML archive (doi:10.1021/je200721d).

Experiment: xn = mol fraction of the nth substance listed
Settings: Liquid, Vibrating tube method

CCCCCCCC [octane] + CCCCCC
Settings | mass density [kg/m3]
352.91 K, 7000 kPa, x2 = 0.1654 | 656.4
352.91 K, 7000 kPa, x2 = 0.9308 | 619.06
352.91 K, 8000 kPa, x2 = 0.1654 | 657.6
352.91 K, 8000 kPa, x2 = 0.9308 | 620.53
352.91 K, 9000 kPa, x2 = 0.1654 | 658.8
352.91 K, 9000 kPa, x2 = 0.9308 | 621.96
352.91 K, 10000 kPa, x2 = 0.1654 | 659.99
352.91 K, 10000 kPa, x2 = 0.9308 | 623.39
352.91 K, 11000 kPa, x2 = 0.1654 | 661.15
352.91 K, 11000 kPa, x2 = 0.9308 | 624.78
352.91 K, 12000 kPa, x2 = 0.1654 | 662.28
352.91 K, 12000 kPa, x2 = 0.9308 | 626.15
352.91 K, 13000 kPa, x2 = 0.1654 | 663.41
352.91 K, 13000 kPa, x2 = 0.9308 | 627.49
352.91 K, 14000 kPa, x2 = 0.1654 | 664.53
352.91 K, 14000 kPa, x2 = 0.9308 | 628.8
352.91 K, 15000 kPa, x2 = 0.1654 | 665.63
352.91 K, 15000 kPa, x2 = 0.9308 | 630.08
352.91 K, 16000 kPa, x2 = 0.1654 | 666.68
352.91 K, 16000 kPa, x2 = 0.9308 | 631.35
352.91 K, 17000 kPa, x2 = 0.1654 | 667.73
352.91 K, 17000 kPa, x2 = 0.9308 | 632.57
352.91 K, 18000 kPa, x2 = 0.1654 | 668.76
352.91 K, 18000 kPa, x2 = 0.9308 | 633.78
352.91 K, 19000 kPa, x2 = 0.1654 | 669.76
352.91 K, 19000 kPa, x2 = 0.9308 | 634.96
352.91 K, 20000 kPa, x2 = 0.1654 | 670.78
352.91 K, 20000 kPa, x2 = 0.9308 | 636.11
352.91 K, 21000 kPa, x2 = 0.1654 | 671.71
352.91 K, 21000 kPa, x2 = 0.9308 | 637.22
352.91 K, 22000 kPa, x2 = 0.1654 | 672.65
352.91 K, 22000 kPa, x2 = 0.9308 | 638.32
352.91 K, 23000 kPa, x2 = 0.1654 | 673.59
352.91 K, 23000 kPa, x2 = 0.9308 | 639.39
352.91 K, 24000 kPa, x2 = 0.1654 | 674.5
352.91 K, 24000 kPa, x2 = 0.9308 | 640.43
352.91 K, 25000 kPa, x2 = 0.1654 | 675.39
352.91 K, 25000 kPa, x2 = 0.9308 | 641.44
352.92 K, 1000 kPa, x2 = 0.7995 | 618.46
352.92 K, 2000 kPa, x2 = 0.7995 | 619.98
352.92 K, 3000 kPa, x2 = 0.7995 | 621.51
352.92 K, 4000 kPa, x2 = 0.7995 | 623
352.92 K, 5000 kPa, x2 = 0.7995 | 624.48
352.92 K, 6000 kPa, x2 = 0.7995 | 625.93
352.92 K, 7000 kPa, x2 = 0.7995 | 627.37
352.92 K, 8000 kPa, x2 = 0.7995 | 628.79
352.92 K, 9000 kPa, x2 = 0.7995 | 630.18
352.92 K, 10000 kPa, x2 = 0.7995 | 631.54
352.92 K, 11000 kPa, x2 = 0.7995 | 632.86
352.92 K, 12000 kPa, x2 = 0.7995 | 634.17
352.92 K, 13000 kPa, x2 = 0.7995 | 635.46
352.92 K, 14000 kPa, x2 = 0.7995 | 636.72
352.92 K, 15000 kPa, x2 = 0.7995 | 637.96
352.92 K, 16000 kPa, x2 = 0.7995 | 639.16
352.92 K, 17000 kPa, x2 = 0.7995 | 640.35
352.92 K, 18000 kPa, x2 = 0.7995 | 641.51
352.92 K, 19000 kPa, x2 = 0.7995 | 642.64
352.92 K, 20000 kPa, x2 = 0.7995 | 643.75
352.92 K, 21000 kPa, x2 = 0.7995 | 644.82
352.92 K, 22000 kPa, x2 = 0.7995 | 645.88
352.92 K, 23000 kPa, x2 = 0.7995 | 646.92
352.92 K, 24000 kPa, x2 = 0.7995 | 647.94
352.92 K, 25000 kPa, x2 = 0.7995 | 648.91
362.76 K, 1000 kPa, x2 = 0.5749 | 622.07
362.76 K, 2000 kPa, x2 = 0.5749 | 623.63
362.76 K, 3000 kPa, x2 = 0.5749 | 625.2
362.76 K, 4000 kPa, x2 = 0.5749 | 626.68
362.76 K, 5000 kPa, x2 = 0.5749 | 628.17
362.76 K, 6000 kPa, x2 = 0.5749 | 629.67
362.76 K, 7000 kPa, x2 = 0.5749 | 631.09
362.76 K, 8000 kPa, x2 = 0.5749 | 632.53
362.76 K, 9000 kPa, x2 = 0.5749 | 633.92
362.76 K, 10000 kPa, x2 = 0.5749 | 635.27
362.76 K, 11000 kPa, x2 = 0.5749 | 636.64
362.76 K, 12000 kPa, x2 = 0.5749 | 637.96
362.76 K, 13000 kPa, x2 = 0.5749 | 639.28
362.76 K, 14000 kPa, x2 = 0.5749 | 640.55
362.76 K, 15000 kPa, x2 = 0.5749 | 641.82
362.76 K, 16000 kPa, x2 = 0.5749 | 643.03
362.76 K, 17000 kPa, x2 = 0.5749 | 644.23
362.76 K, 18000 kPa, x2 = 0.5749 | 645.42
362.76 K, 19000 kPa, x2 = 0.5749 | 646.56
362.76 K, 20000 kPa, x2 = 0.5749 | 647.68
362.76 K, 21000 kPa, x2 = 0.5749 | 648.78
362.76 K, 22000 kPa, x2 = 0.5749 | 649.86
362.76 K, 23000 kPa, x2 = 0.5749 | 650.91
362.76 K, 24000 kPa, x2 = 0.5749 | 651.95
362.76 K, 25000 kPa, x2 = 0.5749 | 652.96
362.88 K, 1000 kPa, x2 = 0.1654 | 640.2
362.88 K, 1000 kPa, x2 = 0.2199 | 637.97
362.88 K, 2000 kPa, x2 = 0.1654 | 641.61
362.88 K, 2000 kPa, x2 = 0.2199 | 639.42
362.88 K, 3000 kPa, x2 = 0.1654 | 642.98
362.88 K, 3000 kPa, x2 = 0.2199 | 640.79
